This note sets out measurements from patent US12558333B2, “Agent for ameliorating and/or preventing sickle cell disease” (The University of Tokyo, priority 2019, dated 2026).

Structures can show the parent of a compound that is named as a salt.

The test system of assay [1] is red blood cells collected from SCD homo mice. The experiment in a line: Sickling by hypoxia exposure of cultured red blood cells collected from SCD homo mice. Format: cell-based, mouse. As to conditions: then 4% O2 for 1.5 hours.
Source text: SCD model mice aged 8 to 20 weeks were used. In the mice, a human HBA gene and a human HBB gene are knocked in a mouse HBA gene locus and a mouse HBB gene locus, respectively, and a gene mutation (β^s mutation) causing amino acid substitution (Val6Glu) causing SCD is introduced into the human HBB gene. Furthermore, a human HBG gene is introduced, and expression switching from post-natal γ-globin to β-globin is designed to occur as in humans. […] The SCD homo mouse was anesthetized with isoflurane, and 100 μl of blood was then collected from the vein behind the jawbone into an EDTA-2Na-coated blood sampling tube using an animal lamp set. The coagulation of the blood was prevented by lightly tapping the tube. The collected blood was transferred to a 1.5 ml tube, and centrifuged for 10 minutes under conditions of 3000 rpm and 4° C. After removing the supernatant, 1 ml of PBS was added to the precipitated red blood cells, followed by mixing by inversion, to wash the cells. The red blood cells obtained by repeating this washing operation again were diluted 200 times with a cell culture solution (RPMI 1640, 10% FBS, 1% Penicillin-Streptomycin-Fungizone Cocktail), and cultured under the conditions of 37° C., 5% CO2, and 21% O2. This red blood cell culture solution was used in the experiment within 5 days from the start of culture. […]
In a further assay the test system is SCD homo mice. Conditions: normal oxygen concentration; 4 weeks; 5-ALA hydrochloride 50 mg/kg/day and/or SFC 3.9 mg/kg/day; vs physiological saline (FIG. 10); combination P<0.05. On the procedure:
All the prepared smear specimens were stained with May-Giemsa in the same manner as in Example 2, and the ratio of sickle cells to all red blood cells was measured. The rate of the sickle cells of the groups were compared with each other to examine the effect of the combination of 5-ALA hydrochloride and SFC on the rate of the in vivo sickle cells.

For a further assay, the system named is SCD homo mouse. As to the kind of experiment: Bleeding stress due to blood sampling in SCD model mice (blood LDH level). It is filed as in vivo. As to conditions: 50/3.9 mg/kg single administration after first blood sampling, blood sampling 2 after 3 hours, vs physiological saline.

Procedure for SCD homo mouse: Using the LDH levels in blood in the SCD model mice as an index, the effect of 5-ALA hydrochloride on bleeding stress due to blood sampling in the SCD patients was examined.
The LDH levels in the blood collected before and after the administration were measured, and the effect of the combination of 5-ALA hydrochloride and SFC on bleeding stress due to blood sampling was evaluated.

Take `NCC(=O)CCC(=O)O` [5-ALA hydrochloride, 5-aminolevulinic acid]: in assay [1] (50 μM for 4 hours, SCD homo mouse No. 72, vs 0 μM (FIG. 1)), the “red blood cells exhibiting a sickle form” value is reported as “remarkable decrease”. Also, the sickling rate result in assay [1] (10, 25 and 50 μM for 4 hours, vs 0 μM (FIG. 2)) was “concentration-dependent decrease”. Also, in the assay with SCD homo mice, the “rate of the in vivo sickle cells” value is on record as “slightly decreases”. For the same compound, in the assay with SCD homo mouse, the “increase in the LDH level in blood after blood sampling” value was “markedly suppressed”.
Regarding sodium ferrous citrate [SFC], in the assay on SCD homo mice, the “rate of the in vivo sickle cells” value is “little effect”.
